According to paper PMC5355322, “Enhancement of the bioavailability of a novel anticancer compound (acetyltanshinone IIA) by encapsulation within mPEG-PLGA nanoparticles: a study of formulation optimization, toxicity, and pharmacokinetics” (Oncotarget, 2017):
Read-outs that look alike come from different tables or passages of the source.

How the values were obtained:
Drug release by dialysis = assay type: physicochemical; details: after 22 h, water with 1% SDS, 37°C
Protocol: The release of ATA from ATA NPs was investigated using dialysis and compared with the release of free ATA in solution [38–41]. Free ATA, or ATA NPs containing an equal amount of ATA, was mixed with release medium (6 mL ultra-pure water with 1% SDS) and placed in a dialysis sack (MWCO 12,000, Sigma). The pocket was then immersed in release medium (50 mL) with gentle stirring at 37°C. Samples of medium from outside of the pocket (2 mL) were taken at the designated time intervals for analysis, and an equal volume of fresh release medium was replenished. The amount of released drug was determined by the RP-HPLC method described in the section “Pharmacokinetics of ATA NPs in rats” below. The similarity of release profiles between the free ATA and ATA NPs were evaluated by the similarity factor (f2) shown below: f2=50log {[1+1/n∑t=1n(Rt−Tt)^2]^−0.5×100}
where n is the number of the time points, Rt is the release value of ATA NPs at time t, and Tt is the release value of free ATA.

[1] = system: MCF-7 breast cancer cells; assay: MTT cell viability assay, MCF-7; assay type: cell-based; details: for reduction of viability of MCF-7 cells: 10 μM and 20 μM; for IC50: Homo sapiens, MCF7
Protocol: (§1) Meanwhile, human umbilical vein endothelial cells (HUVEC) were used to determine the general toxicity of ATA NPs on non-cancerous cells. Cells were treated with free ATA or ATA NPs at six concentrations: 0.625, 1.25, 2.5, 5, 10, and 20 μM for 24, 48, and 72 h. Cell viability was determined by the MTT assay and the experiment was conducted in triplicate.
(§2) The MTT reduction ability was determined as an index of the metabolic viability, in particular mitochondrial function, of the cells. Briefly, MCF-7 cells or HUVEC were seeded in 96-well plates and allowed to grow overnight. Free ATA (dissolved in DMSO, diluted with DMEM), ATA NPs, or blank NPs were added at different concentrations and the cells were incubated for 24, 48, and 72 h. MTT solution (10 μL; 5 mg/mL) was added into each well for 4 h. One hundred microliters of 1% SDS (containing 0.1% concentrated hydrochloric acid) was then added in each well to dissolve the formazan crystals. After 8 h, the absorbance of solubilized MTT formazan products were measured at 595 nm, and the cell viability was calculated from the OD value of the test sample and the vehicle control (untreated cells) using the following equation: cell viability (%) = ODtest sample /ODvehicle control × 100. The data obtained in triplicate from three independent experiments were presented as the mean ± SD.

[2] = system: human umbilical vein endothelial cells (HUVEC); assay: MTT cell viability assay, HUVEC; assay type: cell-based; details: for IC50: Homo sapiens, HUVEC
Protocol: as §1, §2

zebrafish larvae = assay: Heart rate of zebrafish larvae; assay type: in vivo; details: 5 μM, 96 hpf; normal fish larvae 160 bpm
[3] = Pharmacokinetics in rats after single intravenous administration (RP-HPLC); assay type: in vivo, rat; details: for half-life: rat, whole blood, 8 mg/kg
Protocol: The pharmacokinetic parameters of ATA were determined using two-chamber model and calculated using Excel PKsolver. According to the requirements for the selection of pharmacokinetic calculation model, the values of Akaike's information criterion and residual sum of squares (Re) were minimized, while the value of the determinate coefficient (r) was maximized. The mean retention time was calculated by statistical moment analysis.
Free ATA was suspended in a solution of PEG300: Ethanol: Tween 80 (60:25:15, v:v:v). […] At different time points (15 min, 30 min, 1, 2, 3, 4, 5, 6, 8, and 24 h), blood samples (0.3 mL) were collected from the suborbital vein and put into heparinized tubes. The blood samples were centrifuged at 3,000 rpm at 4°C for 10 min to obtain plasma. Then, the samples were pretreated and injected into RP-HPLC for detection. Microsoft Excel PKSolver was used to analyze the pharmacokinetic data. All animal studies were done in accordance with the protocol of ARF SBS NIE A-0146 AZ approved by the Institutional Animal Care and Use Committee, Nanyang Technological University, Singapore.
Before the samples were injected into the chromatograph, they were subjected to protein denaturation and precipitation. Briefly, acetonitrile (700 μL) was added to each 300 μL sample to precipitate the proteins and extract ATA. Samples were vortex mixed for 15 min and then centrifuged for 10 min at 14,000 rpm at 4°C. The deproteinized supernatant was recovered and analyzed immediately by RP-HPLC.
The concentration of ATA in plasma or whole blood was measured by RP-HPLC analysis as described above. The standard stock solution of ATA was added into the plasma or blood at different concentrations and subjected to sample pretreatment. The calibration graphs were based on linear regression analysis of the peak-area of ATA versus the concentration of ATA [32–36]. The extraction recoveries of ATA from rat plasma were determined at the concentrations of 0.0005, 0.01, and 50 μg/mL and from rat blood at the concentrations of 0.1, 5, and 100 μg/mL, using five replicates. The precision and accuracy of the method were examined at three concentrations of samples. The intra-day precisions were evaluated by analyzing five replicate samples in one day. The analysis was performed on five consecutive days for the inter-day precision.

ER+ breast cancer cells = details: compared with tamoxifen; ref [23]; cited from earlier work
ER [4] = details: ref [23]; cited from earlier work
ER [5] = details: ref [23]; cited from earlier work; remark: listed apart in the source
GREB1 = details: ref [23]; cited from earlier work
[6] = parameters: method as in our previous study in rats; details: rats; ref our previous study in rats; cited from earlier work
[7] = rat whole blood, single i.v. 8 mg/kg
[8] = rat whole blood, single i.v. 8 mg/kg, two-chamber model

## CC(=O)Oc1c(OC(C)=O)c2c(C)coc2c2ccc3c(c12)CCCC3(C)C [Free ATA, acetyltanshinone IIA]
Drug release by dialysis
  ATA released: 50%
[1]; 48 and 72 h
  reduction of viability of MCF-7 cells: ~100%
[1]; 24 h
  reduction of viability of MCF-7 cells: approximately 90%
[1]; MCF-7, 24 h
  IC50: 2620 nM
[1]; MCF-7, 48 h
  IC50: 1720 nM
[1]; MCF-7, 72 h
  IC50: 1060 nM
[2]; 24 h, HUVEC vs MCF-7
  24 h-IC50 in HUVEC cells relative to MCF-7 cells: 7.4 fold
[2]; 24 h
  IC50: 19300 nM
[2]; 48 h
  IC50: 6670 nM
[2]; 72 h
  IC50: 2050 nM
Zebrafish larvae
  heartbeats: 120 bpm
[3]; female, SD, iv, rat whole blood, single i.v. 8 mg/kg, statistical moment analysis, read-out: MRT (mean retention time) (converted)
  MRT: 15.9 min
[3]; female, SD, iv, rat whole blood, single i.v. 8 mg/kg, two-chamber model
  AUC(0-inf): 0.514 µM·h
[3]; female, SD, iv, rat whole blood, single i.v. 8 mg/kg, two-chamber model, read-out: AUC0-24h (converted)
  AUC(0-t): 0.509 µM·h
[3]; female, SD, iv, rat whole blood, single i.v. 8 mg/kg, two-chamber model, read-out: C0 (initial concentration)
  C0: 4.06 µM
[3]; female, SD, iv, rat whole blood, single i.v. 8 mg/kg, two-chamber model, read-out: t1/2 alpha (distribution half-life)
  half-life: 3.55 min
[3]; female, SD, iv, rat whole blood, single i.v. 8 mg/kg, two-chamber model, read-out: t1/2 beta (elimination half-life)
  half-life: 22.8 min
[3]; rat plasma, i.v. 8 mg/kg, both forms
  ATA concentration in plasma: too low to be detected after 15 min
[3]; rat whole blood, i.v. 8 mg/kg
  time until the blood concentration of ATA was reduced to 0.5 μM: 12 min
[3]; rat whole blood, i.v. 8 mg/kg, 240-min test
  decline of blood ATA concentration: declined rapidly, and reached a very low level after 30 min
[3]; [7]
  AUMC (area under the first moment curve): 490.97 μM·min^2
  Vss (steady state volume of distribution): 4.12 mg/kg/µM
[3]; [8]
  CL2 (clearance between central and peripheral compartment): 0.10 (mg/kg)/μM/min
  CL (clearance): 0.26 (mg/kg)/μM/min
  V2 (compartment volume of distribution): 2.15 (mg/kg)/μM
  V (apparent volume of distribution): 1.97 (mg/kg)/μM
  k10 (elimination rate): 0.13 min⁻¹
  k12 (inter-compartment rate): 0.05 min⁻¹
  k21 (intra-compartment rate): 0.05 min⁻¹
Zebrafish embryos; 2.5 μM, 96 hpf
  Deformity and mortality rate (%) (total): 40%
Zebrafish embryos; 5 μM, 96 hpf
  Mortality rate (%): 70%
Zebrafish embryos; 10 μM, 96 hpf
  Mortality rate (%): 100%
Zebrafish embryos; 20 μM, 96 hpf
  Mortality rate (%): 100%
Zebrafish embryos; 96 hpf
  dosages that caused deformity or mortality in zebrafish larvae: higher than 1 μM
Zebrafish embryos; zebrafish, in vivo
  Deformity rate (%): 20%
ER+ breast cancer cells
  growth inhibition of ER+ breast cancer cells: stronger growth inhibition of ER+ breast cancer cells than tamoxifen
ER [4]
  effect on ER protein: completely abolished the presence of ER
ER [5]
  expression of ER at the mRNA level: reduced the expression of ER at the mRNA level
GREB1
  transcription of ER-responsive gene GREB1: reduced the transcription
[6]
  bioavailability: low bioavailability

## C[C@]12CC[C@@H]3c4ccc(O)cc4C[C@@H](CCCCCCCCC[S+]([O-])CCCC(F)(F)C(F)(F)F)[C@H]3[C@@H]1CC[C@@H]2O (some centres unmarked) [fulvestrant, reference compound]
ER [4]
  effect on ER protein: only reduced the protein level
